Measurements reported in patent US10894817B2, “Fatty acid modified urocortin-2 analogs for the treatment of diabetes and chronic kidney disease” (priority 2016, dated 2021).
Starred links: 1 amine or outer side, 2 acyl side, 3 side chain; linkers in the order of their positions; H or OH if unused. Non-standard residues stand in square brackets, D forms with d. Residues, ends and D or L forms follow the SMILES beside them. Groups on a side chain read outwards from the residue. *: point of attachment. C20 diacid = O=C(O)CCCCCCCCCCCCCCCCCCC(=O)*; C18 diacid = O=C(O)CCCCCCCCCCCCCCCCC(=O)*; γGlu = O=C(O)[C@H](CCC(=O)[*:2])N[*:1]; Palmitoyl = CCCCCCCCCCCCCCCC(=O)*; NMeI = CC[C@H](C)[C@H](NC)C(=O)O; AEEA = NCCOCCOCC(=O)O

Each compound was assayed against T1, human CRHR2b (Homo sapiens, UniProt Q13324) (assay: human CRHR2b cell-based cAMP assay). Details: cAMP assay; Table 26, compounds of Example 9; read-out: hCRHR2b Average EC50.
T1 construct: expressed in transfected cells; host or cells: Chinese Hamster Ovary (CHO) cells, transient transfection
T1 sequence (Q13324 1-438 isoform Q13324-2): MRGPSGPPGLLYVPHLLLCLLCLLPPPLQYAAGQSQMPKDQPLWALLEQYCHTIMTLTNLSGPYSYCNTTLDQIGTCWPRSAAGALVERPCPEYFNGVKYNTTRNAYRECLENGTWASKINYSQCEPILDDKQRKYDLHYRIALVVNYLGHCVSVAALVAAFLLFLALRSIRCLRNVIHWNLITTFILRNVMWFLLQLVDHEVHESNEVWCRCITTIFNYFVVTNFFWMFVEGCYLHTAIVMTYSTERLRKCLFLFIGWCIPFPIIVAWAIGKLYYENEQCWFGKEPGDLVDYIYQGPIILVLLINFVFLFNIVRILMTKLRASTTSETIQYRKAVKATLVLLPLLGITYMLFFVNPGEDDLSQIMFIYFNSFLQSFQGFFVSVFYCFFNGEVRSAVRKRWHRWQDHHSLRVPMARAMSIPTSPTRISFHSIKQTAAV
Method: CRHR agonistic activity is measured in a cell-based cAMP assay. Serial dilutions of the test peptides are made in assay buffer containing Hank's Balanced Salt Solution (HBSS, without phenol red) supplemented with 20 mM HEPES and 0.05% lactalbumin enzymatic hydrolysate (LAH) (“assay buffer”). […] A one to three dilution of the test peptides is used in both assays. Receptor over-expressing Chinese Hamster Ovary (CHO) cell line is used for the human CRHR2b assay. […] AF011406.1). Forty-eight hours after the transfection, the cells are centrifuged to remove the culture media and resuspended in fetal bovine serum containing 5% DMSO. They are cryofrozen and stored in vials in liquid nitrogen (20×10^6 cells/ml/vial). On the day of the assay, cells are thawed and resuspended in cold 30 ml culture media supplemented with 20 mM HEPES. The cells are then centrifuged to remove the media and washed once with HBSS supplemented with 20 mM HEPES. Finally, following the last centrifugation, the cells are resuspended in assay buffer. Thirty-thousand cells are used in the human CRHR2b assay for each treatment. The cells are dispensed into Costar 96-well black polystyrene half area EIA/RIA plates (Corning Incorporated, Corning, N.Y.) followed by the addition of the diluted peptides, each at a volume of 20 μL. The agonist induced cAMP levels are detected using a HTRF cAMP Dynamic 2 kit (CisBio, Bedford, Mass.). After incubation at 37° C. for 30 min, the assay is stopped by cell lysis via the addition of 20 μL of d2-labeled cAMP and followed by 20 μL of cryptate-labeled anti-cAMP antibody, as described by the manufacturer. Cellular cAMP (as a result of agonist stimulation) competes with the d2-labeled cAMP for binding to the antibody. HTRF detection is performed on an Envision plate reader (Perkin Elmer Life and Analytical Sciences, Waltham, Mass.) by measuring ratiometric emission at 620 and 665 nm after excitation at 320 nm. The data are converted to picomoles of cAMP using a standard curve obtained from the same assay performed with varying concentrations of unlabeled cAMP. […] The data are analyzed using a Curve Fitting Tool to calculate ED50. Numeric values shown below in Table 1 represent the mean of multiple runs (number of runs shown in parentheses) following the mean value±SEM.
For `CCCCCCCCCCCCCCCC(=O)N[C@@H](CCC(=O)N[C@@H](CCC(=O)NCCCC[C@H](NC(=O)[C@H](C)NC(=O)[C@H](CCC(N)=O)NC(=O)[C@H](CCC(N)=O)NC(=O)[C@H](CCCCN)NC(=O)[C@H](CCC(=O)O)NC(=O)[C@H](CCCCN)NC(=O)[C@H](CCC(=O)O)NC(=O)[C@H](CCC(N)=O)NC(=O)[C@H](CCCCN)NC(=O)[C@H](CCC(=O)O)NC(=O)[C@H](CCC(N)=O)NC(=O)[C@H](CCC(=O)O)NC(=O)[C@H](CC(C)C)NC(=O)[C@H](CC(C)C)NC(=O)[C@@H](NC(=O)[C@H](CCC(N)=O)NC(=O)[C@H](CC(C)C)NC(=O)[C@H](CC(C)C)NC(=O)CNC(=O)[C@@H](NC(=O)[C@@H]1CCCN1C(=O)[C@@H](NC(=O)[C@H](CC(=O)O)NC(=O)[C@H](CC(C)C)NC(=O)[C@H](CO)NC(=O)[C@H](CC(C)C)NC(=O)[C@@H](NC(=O)[C@@H](N)[C@@H](C)CC)C(C)C)C(C)C)[C@@H](C)CC)[C@@H](C)CC)C(=O)N[C@H](C(=O)N[C@@H](CC(N)=O)C(=O)N[C@@H](C)C(=O)N[C@@H](CCCNC(=N)N)C(=O)N[C@H](C(=O)N[C@@H](CC(C)C)C(=O)N[C@@H](C)C(=O)N[C@@H](CCCNC(=N)N)C(=O)N[C@H](C(N)=O)C(C)C)[C@@H](C)CC)[C@@H](C)O)C(=O)O)C(=O)O` [Compound 38] (H-IVLSLDVPIGLLQILLEQEKQEKEKQQAK([γGlu-γGlu-Palmitoyl])TNARILARV-NH2), the EC50 was 2.33 nM. “IVLSLDVPIGLLQILLEQEKQEKEKQQAK*ENAQILAQV-NH2 [Compound 56, K* at position 29 bonded with ([2-(2-Amino-ethoxy)-ethoxy]-acetyl)2-γE-CO—(CH2)16—COOH; C-terminal primary amide]” gave an EC50 of 1.17 nM. Work on `CC[C@H](C)[C@H](N)C(=O)N[C@H](C(=O)N[C@@H](CC(C)C)C(=O)N[C@@H](CO)C(=O)N[C@@H](CC(C)C)C(=O)N[C@@H](CC(=O)O)C(=O)N[C@H](C(=O)N1CCC[C@H]1C(=O)N[C@H](C(=O)NCC(=O)N[C@@H](CC(C)C)C(=O)N[C@@H](CC(C)C)C(=O)N[C@@H](CCC(N)=O)C(=O)N[C@@H](CCCCNC(=O)COCCOCCNC(=O)COCCOCCNC(=O)CC[C@H](NC(=O)CC[C@H](NC(=O)CCCCCCCCCCCCCCCCC(=O)O)C(=O)O)C(=O)O)C(=O)N[C@@H](CC(C)C)C(=O)N[C@@H](CC(C)C)C(=O)N[C@@H](CCC(=O)O)C(=O)N[C@@H](CCC(N)=O)C(=O)N[C@@H](CCC(=O)O)C(=O)N[C@@H](CCCCN)C(=O)N[C@@H](CCC(N)=O)C(=O)N[C@@H](CCC(=O)O)C(=O)N[C@@H](CCCCN)C(=O)N[C@@H](CCC(=O)O)C(=O)N[C@@H](CCCCN)C(=O)N[C@@H](CCC(N)=O)C(=O)N[C@@H](CCC(N)=O)C(=O)N[C@@H](C)C(=O)N[C@H](C(=O)N[C@H](C(=O)N[C@@H](CC(N)=O)C(=O)N[C@@H](C)C(=O)N[C@@H](CCC(N)=O)C(=O)N[C@H](C(=O)N[C@@H](CC(C)C)C(=O)N[C@@H](C)C(=O)N[C@@H](Cc1c[nH]cn1)C(=O)N[C@H](C(N)=O)C(C)C)[C@@H](C)CC)[C@@H](C)O)[C@@H](C)O)[C@@H](C)CC)C(C)C)C(C)C` [Compound 40] (H-IVLSLDVPIGLLQK([AEEA-AEEA-γGlu-γGlu-C18 diacid])LLEQEKQEKEKQQATTNAQILAHV-NH2) yielded an EC50 of 55.9 nM. `CCCCCCCCCCCCCCCC(=O)N[C@@H](CCC(=O)NCCCC[C@H](NC(=O)[C@H](CCC(N)=O)NC(=O)[C@H](CCC(N)=O)NC(=O)[C@H](CCCCN)NC(=O)[C@H](CCC(=O)O)NC(=O)[C@H](CCCCN)NC(=O)[C@H](CCC(=O)O)NC(=O)[C@H](CCC(N)=O)NC(=O)[C@H](CCCCN)NC(=O)[C@H](CCC(=O)O)NC(=O)[C@H](CCC(N)=O)NC(=O)[C@H](CCC(=O)O)NC(=O)[C@H](CC(C)C)NC(=O)[C@H](CC(C)C)NC(=O)[C@@H](NC(=O)[C@H](CCC(N)=O)NC(=O)[C@H](CC(C)C)NC(=O)[C@H](CC(C)C)NC(=O)CNC(=O)[C@@H](NC(=O)[C@@H]1CCCN1C(=O)[C@@H](NC(=O)[C@H](CC(=O)O)NC(=O)[C@H](CC(C)C)NC(=O)[C@H](CO)NC(=O)[C@H](CC(C)C)NC(=O)[C@@H](NC(=O)[C@@H](N)[C@@H](C)CC)C(C)C)C(C)C)[C@@H](C)CC)[C@@H](C)CC)C(=O)N[C@H](C(=O)N[C@H](C(=O)N[C@@H](CC(N)=O)C(=O)N[C@@H](C)C(=O)N[C@@H](CCCNC(=N)N)C(=O)N[C@H](C(=O)N[C@@H](CC(C)C)C(=O)N[C@@H](C)C(=O)N[C@@H](CCCNC(=N)N)C(=O)N[C@H](C(N)=O)C(C)C)[C@@H](C)CC)[C@@H](C)O)[C@@H](C)O)C(=O)O` [Compound 36] (H-IVLSLDVPIGLLQILLEQEKQEKEKQQK([γGlu-Palmitoyl])TTNARILARV-NH2) was tested, and the EC50 was 331 nM. Compound `CC[C@H](C)[C@H](NC)C(=O)N[C@H](C(=O)N[C@@H](CC(C)C)C(=O)N[C@@H](CO)C(=O)N[C@@H](CC(C)C)C(=O)N[C@@H](CC(=O)O)C(=O)N[C@H](C(=O)N1CCC[C@H]1C(=O)N[C@H](C(=O)NCC(=O)N[C@@H](CC(C)C)C(=O)N[C@@H](CC(C)C)C(=O)N[C@@H](CCC(N)=O)C(=O)N[C@H](C(=O)N[C@@H](CC(C)C)C(=O)N[C@@H](CC(C)C)C(=O)N[C@@H](CCC(=O)O)C(=O)N[C@@H](CCC(N)=O)C(=O)N[C@@H](CCC(=O)O)C(=O)N[C@@H](CCCCN)C(=O)N[C@@H](CCC(N)=O)C(=O)N[C@@H](CCC(=O)O)C(=O)N[C@@H](CCCCN)C(=O)N[C@@H](CCC(=O)O)C(=O)N[C@@H](CCCCN)C(=O)N[C@@H](CCC(N)=O)C(=O)N[C@@H](CCC(N)=O)C(=O)N[C@@H](C)C(=O)N[C@@H](CCCCNC(=O)CC[C@H](NC(=O)COCCOCCNC(=O)COCCOCCNC(=O)CC[C@H](NC(=O)CC[C@H](NC(=O)CCCCCCCCCCCCCCCCCCC(=O)O)C(=O)O)C(=O)O)C(=O)O)C(=O)N[C@H](C(=O)N[C@@H](CC(N)=O)C(=O)N[C@@H](C)C(=O)N[C@@H](CCC(N)=O)C(=O)N[C@H](C(=O)N[C@@H](CC(C)C)C(=O)N[C@@H](C)C(=O)N[C@@H](CCC(N)=O)C(=O)N[C@H](C(N)=O)C(C)C)[C@@H](C)CC)[C@@H](C)O)[C@@H](C)CC)[C@@H](C)CC)C(C)C)C(C)C` [Compound 60] (H-[NMeI]VLSLDVPIGLLQILLEQEKQEKEKQQAK([γGlu-AEEA-AEEA-γGlu-γGlu-C20 diacid])TNAQILAQV-NH2) has an EC50 of 2.55 nM. `CCCCCCCCCCCCCCCC(=O)N[C@@H](CCC(=O)NCCCC[C@H](NC(=O)[C@H](CCC(=O)O)NC(=O)[C@H](CCC(N)=O)NC(=O)[C@H](CCC(=O)O)NC(=O)[C@H](CC(C)C)NC(=O)[C@H](CC(C)C)NC(=O)[C@@H](NC(=O)[C@H](CCC(N)=O)NC(=O)[C@H](CC(C)C)NC(=O)[C@H](CC(C)C)NC(=O)CNC(=O)[C@@H](NC(=O)[C@@H]1CCCN1C(=O)[C@@H](NC(=O)[C@H](CC(=O)O)NC(=O)[C@H](CC(C)C)NC(=O)[C@H](CO)NC(=O)[C@H](CC(C)C)NC(=O)[C@@H](NC(=O)[C@@H](N)[C@@H](C)CC)C(C)C)C(C)C)[C@@H](C)CC)[C@@H](C)CC)C(=O)N[C@@H](CCC(N)=O)C(=O)N[C@@H](CCC(=O)O)C(=O)N[C@@H](CCCCN)C(=O)N[C@@H](CCC(=O)O)C(=O)N[C@@H](CCCCN)C(=O)N[C@@H](CCC(N)=O)C(=O)N[C@@H](CCC(N)=O)C(=O)N[C@@H](C)C(=O)N[C@H](C(=O)N[C@H](C(=O)N[C@@H](CC(N)=O)C(=O)N[C@@H](C)C(=O)N[C@@H](CCCNC(=N)N)C(=O)N[C@H](C(=O)N[C@@H](CC(C)C)C(=O)N[C@@H](C)C(=O)N[C@@H](CCCNC(=N)N)C(=O)N[C@H](C(N)=O)C(C)C)[C@@H](C)CC)[C@@H](C)O)[C@@H](C)O)C(=O)O` [Compound 25] (H-IVLSLDVPIGLLQILLEQEK([γGlu-Palmitoyl])QEKEKQQATTNARILARV-NH2) gave an EC50 of 63.5 nM.
